In ChEMBL document CHEMBL1156134, “2-Amino-5-aryl-pyridines as selective CB2 agonists: synthesis and investigation of structure-activity relationships” (Bioorg Med Chem Lett, 2009):

Legend:
[1] = molecular target: T1, Cannabinoid receptor 2 (Homo sapiens, UniProt P34972); assay: Agonist activity at human CB2 receptor expressed in yeast cells; format: functional, cell-based
[2] = molecular target: T1, Cannabinoid receptor 2; assay: Agonist activity at human CB2 receptor expressed in yeast cells relative to HU210; format: functional, cell-based
[3] = molecular target: T2, Cannabinoid receptor 1 (Homo sapiens, UniProt P21554); assay: Agonist activity at human CB1 receptor expressed in yeast cells; format: functional, cell-based
[4] = tested on: Liver microsomes; assay: Clearance in rat liver microsomes; format: ADME, Microsome
[5] = molecular target: T2, Cannabinoid receptor 1; assay: Agonist activity at human CB1 receptor expressed in yeast cells relative to HU210; format: functional, cell-based

T1 sequence (P34972 whole entry): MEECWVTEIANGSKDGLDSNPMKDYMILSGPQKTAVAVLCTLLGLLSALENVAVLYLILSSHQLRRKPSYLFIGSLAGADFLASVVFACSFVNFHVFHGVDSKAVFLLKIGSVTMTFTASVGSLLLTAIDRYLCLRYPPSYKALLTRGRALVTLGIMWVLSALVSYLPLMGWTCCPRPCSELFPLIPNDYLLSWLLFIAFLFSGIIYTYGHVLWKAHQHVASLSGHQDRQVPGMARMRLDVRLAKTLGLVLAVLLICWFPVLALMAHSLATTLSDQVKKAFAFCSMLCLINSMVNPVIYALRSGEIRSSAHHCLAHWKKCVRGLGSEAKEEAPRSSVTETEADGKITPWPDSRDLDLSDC
T2 sequence (P21554 whole entry): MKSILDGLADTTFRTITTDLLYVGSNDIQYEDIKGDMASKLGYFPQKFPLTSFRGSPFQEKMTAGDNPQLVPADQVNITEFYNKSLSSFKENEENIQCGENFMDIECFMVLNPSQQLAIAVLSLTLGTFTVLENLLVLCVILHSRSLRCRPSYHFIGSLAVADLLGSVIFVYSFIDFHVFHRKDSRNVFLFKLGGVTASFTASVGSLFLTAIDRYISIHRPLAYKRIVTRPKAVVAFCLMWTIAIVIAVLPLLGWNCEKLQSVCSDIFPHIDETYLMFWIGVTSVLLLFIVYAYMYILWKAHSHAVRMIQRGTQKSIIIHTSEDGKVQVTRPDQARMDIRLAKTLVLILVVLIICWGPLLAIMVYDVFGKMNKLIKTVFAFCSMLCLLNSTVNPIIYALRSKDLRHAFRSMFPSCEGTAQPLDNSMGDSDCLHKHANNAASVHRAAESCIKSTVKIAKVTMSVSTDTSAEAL

EC50 [1] [nM] | Efficacy [2] [%] | CL [4] [mL/min/g] | Structure (SMILES) | EC50 [3] [nM] | Efficacy [5] [%]
10000 | 29 |  | c1ccc(-c2ccc(N3CCCCCC3)nc2)nc1 |  | 
251 | 58 |  | Fc1cccc(-c2ccc(N3CCOCC3)nc2)c1F |  | 
501 | 103 |  | Clc1cccnc1-c1ccc(N2CCCCCC2)nc1 |  | 
398 | 43 |  | Clc1ccccc1-c1ccc(N2CCOCC2)nc1 |  | 
251 | 59 |  | O=C1CCCN1c1ccc(-c2cccc(Cl)c2Cl)cn1 |  | 
1000 | 91 |  | Nc1cccnc1-c1ccc(N2CCCCCC2)nc1 |  | 
100 | 101 | 13 | Clc1ccc(-c2ccc(N3CCCCCC3)nc2)nc1 |  | 
79.4 | 88 | 9.5 | Clc1cccc(-c2ccc(N3CCOCC3)nc2)c1Cl |  | 
126 | 86 |  | Cc1ccc(N)c(-c2ccc(N3CCCCCC3)nc2)n1 |  | 
251 | 37 | 11 | C[C@@H]1CC[C@H](C)N1c1ccc(-c2cccc(Cl)c2Cl)cn1 |  | 
1260 | 102 |  | Cc1cnc(-c2ccc(N3CCCCCC3)nc2)c(C)c1 |  | 
63.1 | 87 | 27 | Clc1cccc(-c2ccc(N3CCCOCC3)nc2)c1Cl |  | 

Continued, molecule first:

Structure (SMILES) | EC50 [1] [nM] | Efficacy [2] [%] | CL [4] [mL/min/g] | EC50 [3] [nM] | Efficacy [5] [%]
O=C(O)c1cc(-c2cccc(Cl)c2Cl)cnc1N1CCCCCC1 | 1580 | 41 |  | > 31600 | 
CCCCNc1ccc(-c2cccc(Cl)c2Cl)cn1 | 79.4 | 88 |  |  | 
Cc1c(Cl)cccc1-c1ccc(N2CCOCC2)nc1 | 501 | 73 |  |  | 
N#Cc1cc(-c2cccc(Cl)c2Cl)cnc1N1CCCCCC1 | 3980 | 41 |  | > 31600 | 
Clc1ccc(-c2ccc(N3CCOCC3)nc2)cc1Cl | 3980 | 11 |  |  | 
Clc1cnc(-c2ccc(N3CCCCCC3)nc2)c(Cl)c1 | 316 | 100 |  |  | 
Clc1cccc(-c2ccc(N3CCCCCC3)nc2)c1Cl | 39.8 | 104 | 30 | 10000 | 4
CN(C)C(=O)c1cc(-c2cccc(Cl)c2Cl)cnc1N1CCCCCC1 | 794 | 37 |  | > 31600 | 
CC1CC(C)CN(c2ccc(-c3cccc(Cl)c3Cl)cn2)C1 (stereo not given) | 501 | 73 |  |  | 
N#Cc1cc(N2CCCCCC2)ncc1-c1cccc(Cl)c1Cl | 100 | 86 | > 50 | 10000 | 13
c1cc2occc2c(-c2ccc(N3CCCCCC3)nc2)n1 | 63.1 | 80 | > 50 |  | 
Clc1ccc(Cl)c(-c2ccc(N3CCOCC3)nc2)c1 | 631 | 25 |  |  | 
Cc1cccnc1-c1ccc(N2CCCCCC2)nc1 | 794 | 86 |  |  | 
FC(F)(F)c1cc(N2CCCCCC2)ncc1-c1cccc(Cl)c1Cl | 2510 | 79 |  | > 31600 | 
Clc1cccc(-c2ccc(N3CCOCC3)nc2)c1 | 1000 | 20 |  |  | 
N#Cc1cccnc1-c1ccc(N2CCCCCC2)nc1 | 398 | 75 |  |  | 
O=C(c1cc(-c2cccc(Cl)c2Cl)cnc1N1CCCCCC1)N1CCOCC1 | 79.4 | 67 | > 50 | 10000 | 0.19
FC(F)(F)c1cc(-c2cccc(Cl)c2Cl)cnc1N1CCCCCC1 | 6310 | 12 |  | > 31600 | 
Clc1ccc(-c2ccc(N3CCOCC3)nc2)c(Cl)c1 | > 31600 |  |  |  | 
Fc1ccc(-c2ccc(N3CCOCC3)nc2)c(F)c1 | > 31600 |  |  |  | 
Clc1cccc(-c2ccc(N3CCSCC3)nc2)c1Cl | 158 | 93 |  |  | 
O=C1CCC(=O)N1c1ccc(-c2cccc(Cl)c2Cl)cn1 | 3980 | 19 |  |  | 
